The text below walks through data of patent EP0388528B1, “Carboximidamide derivatives” (KIRIN BEER KABUSHIKI KAISHA, priority 1988, dated 1990).

The test system of experiment [1] is isolated rat aortae. The experiment can be described thus: Vasorelaxing effect on the isolated rat aortae (Referential Example 2)-1). Conditions: inhibition of contraction induced by 40 mM KCl, read-out: IC₅₀ Value. How it is done:
(§1) The compounds of the present invention were tested for their physiological activities by measuring the tension of isolated rat aortae isometrically.
Thoracic aortae obtained from male Wistar rats (weighing 250-350 g) were cut into ring segments about 3 mm long. The ring preparation was placed in an organ bath filled with 10 ml of Krebs-Ringer solution which was maintained at 37°C and gassed with 95% O₂ - 5% CO₂.
The preparation in the organ bath was allowed to equilibrate under resting tension 1 g. After equilibration period, the solution in the organ bath was replaced with an isotonic solution containing 40 mM KCl to contract the preparation.
(§2) After the contraction induced by KCl had reached plateau, the concentration-response relationship for the test compound was determined by means of cumulative addition.
(§3) The relaxation response of the test compounds was expressed as the percent inhibition of the contraction induced by KCl, and the IC₅₀ value, which is a concentration required for inhibiting the contraction induced by KCl to an extent of 50%, was calculated by the Probit method from the concentration-response curve.

For experiment [2], the system named is isolated rat aortae. Briefly: Vasorelaxing effect on the isolated rat aortae (Referential Example 1)-1). Conditions: inhibition of contraction induced by 40 mM KCl. How it is done: as §1
Thoracic aortae obtained from male Wistar rats (weighing 250-350 g) were cut into ring segments about 3 mm long. The ring preparation was placed in an organ bath filled with 10 ml of Krebs-Ringer solution that was maintained at 37°C and gassed with 95% O₂ - 5% CO₂.
The preparation in the organ bath was allowed to equilibrate under resting tension of 1 g. After equilibration period, the solution in the organ bath was replaced with an isotonic solution containing 40 mM KCl to contract the preparation.
as §2, §3

The subject of experiment [3] is spontaneous hypertensive rats (SHR). The experiment can be described thus: Hypotensive effect on spontaneous hypertensive rats (intravenously) (Referential Example 1)-3). The class given is in vivo. Conditions: Rattus norvegicus, iv, anesthetized SHR, dose descending mean blood pressure by 20%; read-out: ED₂₀ (mg/kg, i.v.). How it is done:
Rats were anesthetized with urethane-α-chloralose (1 g/kg - 25 mg/kg; intraperitoneally). Mean blood pressure was measured by a pressure transducer through a cannula inserted into the carotid artery. The compound was cumulatively administered every 30 minutes through the cannula inserted into the jagular vein. The change in blood pressure was expressed as percent of the blood pressure before the administration of the compound. And the ED₂₀ value, which was the dose required for descending blood pressure to an extent of 20%, was calculated from the dose-response curve.

Experiment [4] has as its system potassium channel. Briefly: Potassium channel activating effect (86Rb efflux from rat thoracic aorta). Conditions: compound 10⁻⁴ M for 8 minutes, percent of the efflux before application. How it is done:
Male Wistar rats (weighing 250-350 g) were dehematized to death, and thoracic aortae were rapidly isolated. The aorta was opened along the longitudinal axis to prepare a flat sheet. The preparation was loaded with ⁸⁶Rb in the Krebs-Ringer solution which contained ⁸⁶Rb in the concentration of 10 µCi/ml and was gassed with 95% O₂ - 5% CO₂ at 37°C for 2 hours. The preparation was then transferred to a Krebs-Ringer solution not containing ⁸⁶Rb, and washed to remove excess radioactivity for 18 minutes by refreshing the solution every 2 minutes. Finally the preparation was placed into a Krebs-Ringer solution containing each compound (10⁻⁴ M) for 8 minutes.
The amount of ⁸⁶Rb efflux from the preparation in each period was determined with a γ-counter.
The increment in efflux rate during the application of the compound was expressed as percent of the efflux before the application of the compound.

Experiment [5] has as its system spontaneous hypertensive rats (SHR). Briefly: Hypotensive effect on spontaneous hypertensive rats (intravenously) (Referential Example 2)-2). The class given is in vivo. Conditions: Rattus norvegicus, iv, anesthetized SHR, dose decreasing mean blood pressure by 20%; read-out: ED₂₀ (mg/kg, i.v.). How it is done:
Rats were anesthetized with urethane-α-chloralose (1 g/kg - 25 mg/kg; intraperitoneally). Mean blood pressure was measured by a pressure transducer through a cannula inserted into the carotid artery. The compound was cumulatively administered every 30 minutes through the cannula inserted into the jagular vein. The change in blood pressure was expressed as percent of the blood pressure before the administration of the compound. And the ED₂₀ value, which was the dose required for decreasing blood pressure to an extent of 20%, was calculated from the dose-response curve.

In experiment [6] the test system is isolated rat heart. The experiment can be described thus: Effect on isolated rat heart (Langendorff's method). Conditions: 1 × 10⁻⁸ mol/min, mean ± S.D. How it is done:
The effect of the compound of the present invention on heart of rats was examined by using the Langendorff's method [test compound: N-cyano-N′-(2-nitroxyethyl)-3-pyridinecarboximidamide (compound (13))]. Hearts were excised from male rats (weighing 250-350 g) and perfused at 80 cmH₂O in a Langendorff fashion. Krebs-Hensaleit bicarbonate solution (pH 7.4, 37°C) containing an 11 mM glucose which was oxygenated with 95% O₂- 5% CO₂ gas mixture was used as a perfusate. The left ventricular pressure was recorded by inserting a latex baloon into the left ventricle, and heart rate was determined from the pulse of it. Coronary perfusate flow was also measured with an electromagnetic flowmeter. The experiments were carried out by perfusing a perfusate containing the compound (13) for 10 minutes after an initial equilibration period for 30 minutes. As the control compound, nicorandil which has an effect opening potassium channel and is similar to the test compound in structure was used. The changes in the coronary perfusate flow and the cardiac function (heart rate × left ventricular pressure) caused by these compounds were expressed as percent changes from the preperfusion values of the compound (13) or nicorandil.

For experiment [7], the system named is beagles. The experiment can be described thus: Hemodynamic profile in beagles (intravenously). It is filed as in vivo. Conditions: peak percent change from pretreatment. How it is done:
Hemodynamic profile of the compound of the present invention was investigated in beagles anesthetized with pentobarbital (30 mg/kg, intravenously) [test compound: N-cyano-N′-(2-nitroxyethyl)-3-pyridinecarboximidamide (compound (13))]. The thorax was opened under artificial respiration. After administering heparin in an amount of 500 units/kg, a Moravitz's cannula was introduced into the coronary sinus via the right atrium. The coronary sinus outflow was returned to the right external jagular vein. The coronary sinus outflow was measured by an electromagnetic flowmeter (MFU-2100, manufactured by Nihon Kohden) connected to the Moravitz's cannula. A cannula was inserted into the aortic arch through the subclavian artery to measure aortic blood pressure. The aortic blood pressure was measured with a pressure transducer (Nihon Kohden, TP-200T). Heart rate was monitored with a heart rate counter with R waves of electrocardiogram. All parameters were recorded on a thermosensitive recorder (WT-685G, manufactured by Nihon Kohden).
The compound was administered through the cannula inserted into the right femoral vein. Nicorandil was used as a control. As for respective measurement items, peak changes were expressed as percent change from the pretreatment values of the compound (13) or nicorandil.

Experiment [8] relates to isolated heart of rats. Briefly: Myocardiac injury induced by re-perfusion after ischemia (isolated heart of rats). Conditions: 1×10⁻⁶ mole/min, after 30 minutes re-perfusion, mean ± SD. How it is done:
The cardiac muscle protecting effect of the compound of the present invention was tested by using the isolated heart of rats [test compound: N-cyano-N′-(2-nitroxyethyl)-3-pyridinecarboximidamide (compound (13))]. The Langendorff's method was used in the same manner as in the aforementioned Referential Example 1)-6. The isolated heart was perfused with a perfusate for 30 minutes and then with a perfusate containing the test compound for 10 minutes, and perfusion was stopped so that the heart was in the so-called "ischemic state". Pacing was performed during the ischemia. […] Parameters of cardiac function after the onset of re-perfusion was monitored for 30 minutes, and the heart was quickly freezed. The amount of ATP in the heart muscle was extracted with perchloric acid and determined by HPLC. Nicorandil was used as a control.
The recovery rate of the cardiac function (heart rate × left ventricular pressure) after onset of reperfusion was calculated based on the cardiac function prior to the perfusion of the compound (13) and nicorandil as 100%. The amount of ATP in the heart muscle was also determined.

Molecules are shown by their SMILES.

In the case of `N#CNC(=NCCc1ccccc1)c1ccsc1` [(68), N-cyano-N′-(2-phenylethyl)-3-thiophenecarboximidamide], the IC50 in experiment [1] was 92 µM.
The same measure, in the same setting: as for `N#CNC(=NCCO[N+](=O)[O-])c1ccoc1` [(64), N-cyano-N′-(2-nitroxyethyl)-3-furancarboximidamide], the figure is 8 µM; as for `N#CNC(=NCCc1ccccc1)c1cnc2ccccc2c1` [(60), N-cyano-N′-(2-phenylethyl)-3-quinolinecarboximidamide], 6.1 µM.
In turn, `N#CNC(=NCCO[N+](=O)[O-])c1ccccn1` [Compound (1), N-cyano-N'-(2-nitroxyethyl)-2-pyridinecarboximidamide] had an IC50 in experiment [2] of 4.6 µM. The ED20 in experiment [3] came to 0.037 mg/kg.
As to `N#CNC(=NCCO[N+](=O)[O-])c1ccncc1` [(41), N-cyano-N'-(2-nitroxyethyl)-4-pyridinecarboximidamide], the IC50 in experiment [2] was determined as 12 µM. For the same molecule, the “Increment of Efflux (%)” value in experiment [4] turned out to be 126.88%. Also, the ED20 in experiment [3] was 0.13 mg/kg.
For the molecule `N#CNC(=NCCc1ccccc1Cl)c1cccnc1` [(29), N-cyano-N'-[2-(2-chlorophenyl)ethyl]-3-pyridinecarboximidamide], the IC50 in experiment [2] came to 38 µM. Also, the ED20 in experiment [3] is 0.013 mg/kg.
Consider `N#CNC(=NCCO[N+](=O)[O-])c1ccco1` [(62), N-cyano-N′-(2-nitroxyethyl)-2-furancarboximidamide], for which the IC50 in experiment [1] was 26 µM. The ED20 in experiment [5] came to 0.025 mg/kg.
Consider `O=C(NCCO[N+](=O)[O-])c1cccnc1` [Nicorandil, nicorandil, reference compound], for which the “Coronary Perfusate Flow (% change)” value in experiment [6] (perfusion 10 minutes) is given as 3.3±5.6 % change. For the same molecule, the “Cardiac Function” value in experiment [6] (heart rate × left ventricular pressure, percent change from preperfusion) worked out at 3.7±6.7%. In addition, in experiment [7] (i.v. 100.0 µg/kg), the “Coronary Blood Flow” value was found to be 20.3±5.1%, the “Heart Rate” value is given as 0.2±2.1% and the “Mean Aortic Blood Pressure” value is -21.3±1.9%. Further, in experiment [7] (i.v. 300.0 µg/kg), the “Coronary Blood Flow” value was 84.9±10.8%, the “Heart Rate” value is -20.7±1.9% and the “Mean Aortic Blood Pressure” value is recorded as -43.1±5.4%. Besides, the “Amount of ATP in the heart muscle (µmole/g of dry weight)” value in experiment [8] is reported as 5.93±0.49 (4) µmole/g of dry weight.
Turning to `CSC(=NC#N)NCCO[N+](=O)[O-]` [(70), 3-Cyano-2-methyl-1-(2-nitroxyethyl)-isothiourea], the IC50 in experiment [1] was 4.3 µM.
Consider `N#CNC(=NCCc1ccccc1)c1cccnc1` [(27), N-cyano-N'-(2-phenylethyl)-3-pyridinecarboximidamide], for which the IC50 in experiment [2] is 40 µM. The “Increment of Efflux (%)” value in experiment [4] was found to be 206.61%. Moreover, the ED20 in experiment [3] stood at 0.074 mg/kg.
The matching figures for `N#CNC(=NCc1ccccc1)c1cccnc1` [(17), N-cyano-N'-benzyl-3-pyridinecarboximidamide]: 66 µM, 135.41% and 0.25 mg/kg.
Regarding `N#CNC(=NCCc1ccccc1)c1ccco1` [(63), N-cyano-N′-(2-phenylethyl)-2-furancarboximidamide], in experiment [1], the IC50 came to 18 µM.
As for `N#CNC(=NCCO[N+](=O)[O-])c1cccs1` [(66), N-cyano-N′-(2-nitroxyethyl)-2-thiophenecarboximidamide], the IC50 in experiment [1] is 9.6 µM. In addition, the ED20 in experiment [5] amounted to 0.115 mg/kg.
Regarding `N#CNC(=NCCO[N+](=O)[O-])c1cnc2ccccc2c1` [Compound (59), N-cyano-N′-(2-nitroxyethyl)-3-quinolinecarboximidamide], the IC50 in experiment [1] worked out at 24 µM.
The same measure, in the same setting: as for `N#CNC(=NCCc1ccccc1)c1ccoc1` [(65), N-cyano-N′-(2-phenylethyl)-3-furancarboximidamide], the figure is 94 µM; as for `N#CNC(=NCCO[N+](=O)[O-])c1cnccn1` [(61), N-cyano-N′-(2-nitroxyethyl)pyrazinecarboximidamide], 53 µM.
With `N#CNC(=NCCc1ccccc1)c1ccc(C#N)cc1` [(69), N-cyano-N′-(2-phenylethyl)-4-cyanobenzenecarboximidamide], the IC50 in experiment [1] amounted to 40 µM.
Same read-out and setting: as for `N#CNC(=NCCc1ccccc1)c1cccs1` [(67), N-cyano-N′-(2-phenylethyl)-2-thiophenecarboximidamide], the figure is 19 µM.
